According to patent US9944666B2, “Compounds that are S1P modulating agents and/or ATX modulating agents” (BIOGEN MA INC., priority 2012, dated 2018):

Biological target: T1, Human ATX protein (Homo sapiens, UniProt Q13822)
T1 construct: made in house
Assay: ATX biochemical FRET assay with FS-3 substrate
Settings: FS-3 2 μM, ATX 1.0 μg/mL, room temperature 2 hours, fluorescence 485/538 nm
Summary of the method: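 Purified human ATX (1.0 μg/mL final) preincubated with compound 30 min at room temperature in Tris pH 7.4 buffer with NaCl, KCl, CaCl2, MgCl2 and 1 mg/mL fatty acid-free BSA. FS-3 added to 2 μM final; 2 h at room temperature in the dark, fluorescence at ex 485/em 538 nm.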

Row | Structure (SMILES) | IC50 [nM]
1 | CCC(c1ccc2c(Cl)c(O[C@H]3CC[C@@H](C)CC3)ccc2c1)N1C2CCCC1CC(C(=O)O)C2 (stereo partly drawn) [Example 211, 9-(1-(5-chloro-6-((cis-4-methylcyclohexyl)oxy)naphthalen-2-yl)propyl)-9-azabicyclo[3.3.1]nonane-3-carboxylic acid] | ≤ 100
2 | CC[C@H]1CC[C@@H](Oc2ccc3cc(C(C)N4C5CCC4CC(C(=O)O)C5)ccc3c2C#N)CC1 (stereo partly drawn) [Example 212, 8-(1-(5-cyano-6-((cis-4-ethylcyclohexyl)oxy)naphthalen-2-yl)ethyl)-8-azabicyclo[3.2.1]octane-3-carboxylic acid] | ≤ 100
3 | CC[C@H]1CC[C@@H](Oc2ccc3cc(C(C)N4C5CCCC4CC(C(=O)O)C5)ccc3c2C#N)CC1 (stereo partly drawn) [Example 213, 9-(1-(5-cyano-6-((cis-4-ethylcyclohexyl)oxy)naphthalen-2-yl)ethyl)-9-azabicyclo[3.3.1]nonane-3-carboxylic acid] | ≤ 100
4 | CC(c1ccc2c(Cl)c(O[C@H]3CC[C@@H](C)CC3)ccc2c1)N1C2CCCC1CC(C(=O)O)C2 (stereo partly drawn) [Example 214, 9-(1-(5-chloro-6-((cis-4-methylcyclohexyl)oxy)naphthalen-2-yl)ethyl)-9-azabicyclo[3.3.1]nonane-3-carboxylic acid] | ≤ 100
5 | CC[C@H]1CC[C@@H](Oc2ccc3cc(C(=O)N4C5CCC4CC(C(=O)O)C5)ccc3c2Cl)CC1 (stereo partly drawn) [Example 215, 8-(5-chloro-6-((cis-4-ethylcyclohexyl)oxy)-2-naphthoyl)-8-azabicyclo[3.2.1]octane-3-carboxylic acid] | ≤ 500
6 | CC(c1ccc2c(C(F)(F)F)c(O[C@H]3CC[C@@H](C(C)(F)F)CC3)ccc2c1)N1C2CCC1CC(C(=O)O)C2 (stereo partly drawn) [Example 216, 8-(1-(6-((cis-4-(1,1-difluoroethyl)cyclohexyl)oxy)-5-(trifluoromethyl)naphthalen-2-yl)ethyl)-8-azabicyclo[3.2.1]octane-3-carboxylic acid] | ≤ 100
7 | CC(c1ccc2c(C(F)(F)F)c(O[C@H]3CC[C@@H](C(C)(F)F)CC3)ccc2c1)N1C2CCCC1CC(C(=O)O)C2 (stereo partly drawn) [Example 217, 9-(1-(6-((cis-4-(1,1-difluoroethyl)cyclohexyl)oxy)-5-(trifluoromethyl)naphthalen-2-yl)ethyl)-9-azabicyclo[3.3.1]nonane-3-carboxylic acid] | ≤ 100
8 | C[C@H]1CC[C@@H](Oc2ccc3cc(C(=O)N4C5CCCC4CC(C(=O)O)C5)ccc3c2C#N)CC1 (stereo partly drawn) [Example 218, 9-(5-cyano-6-((cis-4-methylcyclohexyl)oxy)-2-naphthoyl)-9-azabicyclo[3.3.1]nonane-3-carboxylic acid] | ≤ 100
9 | C[C@H]1CC[C@@H](Oc2ccc3cc(C(=O)N4C5CCC4CC(C(=O)O)C5)ccc3c2C#N)CC1 (stereo partly drawn) [Example 219, 8-(5-cyano-6-((cis-4-methylcyclohexyl)oxy)-2-naphthoyl)-8-azabicyclo[3.2.1]octane-3-carboxylic acid] | ≤ 100
10 | CCC(c1ccc2c(C#N)c(O[C@H]3CC[C@@H](CC)CC3)ccc2c1)N1C2CCC1CC(C(=O)O)C2 (stereo partly drawn) [Example 220, 8-(1-(5-cyano-6-((cis-4-ethylcyclohexyl)oxy)naphthalen-2-yl)propyl)-8-azabicyclo[3.2.1]octane-3-carboxylic acid] | ≤ 100
11 | CC[C@H]1CC[C@@H](Oc2ccc3cc(C(=O)N4C5CCCC4CC(C(=O)O)C5)ccc3c2C#N)CC1 (stereo partly drawn) [Example 221, 9-(5-cyano-6-((cis-4-ethylcyclohexyl)oxy)-2-naphthoyl)-9-azabicyclo[3.3.1]nonane-3-carboxylic acid] | ≤ 100
12 | CC[C@H]1CC[C@@H](Oc2ccc3cc(C(=O)N4C5CCC4CC(C(=O)O)C5)ccc3c2C(F)(F)F)CC1 (stereo partly drawn) [Example 222, 8-(6-((cis-4-ethylcyclohexyl)oxy)-5-(trifluoromethyl)-2-naphthoyl)-8-azabicyclo[3.2.1]octane-3-carboxylic acid] | ≤ 100
13 | CC[C@H]1CC[C@@H](Oc2ccc3cc(C(=O)N4C5CCC4CC(C(=O)O)C5)ccc3c2C#N)CC1 (stereo partly drawn) [Example 223, 8-(5-cyano-6-((cis-4-ethylcyclohexyl)oxy)-2-naphthoyl)-8-azabicyclo[3.2.1]octane-3-carboxylic acid] | ≤ 100
14 | CC[C@H]1CC[C@@H](Oc2ccc3cc(C(=O)N4C5CCCC4CC(C(=O)O)C5)ccc3c2C(F)(F)F)CC1 (stereo partly drawn) [Example 224, 9-(6-((cis-4-ethylcyclohexyl)oxy)-5-(trifluoromethyl)-2-naphthoyl)-9-azabicyclo[3.3.1]nonane-3-carboxylic acid] | ≤ 100
15 | CC(c1ccc2c(C#N)c(O[C@H]3CC[C@@H](C)CC3)ccc2c1)N1C2CCCC1CC(C(=O)O)C2 (stereo partly drawn) [Example 225, 9-(1-(5-cyano-6-((cis-4-methylcyclohexyl)oxy)naphthalen-2-yl)ethyl)-9-azabicyclo[3.3.1]nonane-3-carboxylic acid] | ≤ 100
16 | CCC(c1ccc2c(C#N)c(O[C@H]3CC[C@@H](C)CC3)ccc2c1)N1C2CCC1CC(C(=O)O)C2 (stereo partly drawn) [Example 226, 8-(1-(5-cyano-6-((cis-4-methylcyclohexyl)oxy)naphthalen-2-yl)propyl)-8-azabicyclo[3.2.1]octane-3-carboxylic acid] | ≤ 100
17 | CC[C@H]1CC[C@@H](Oc2ccc3cc(C(=O)N4C5CCCC4CC(C(=O)O)C5)ccc3c2Cl)CC1 (stereo partly drawn) [Example 227, 9-(5-chloro-6-((cis-4-ethylcyclohexyl)oxy)-2-naphthoyl)-9-azabicyclo[3.3.]nonane-3-carboxylic acid] | ≤ 100
18 | CC(c1ccc2c(C#N)c(O[C@H]3CC[C@@H](C(F)(F)F)CC3)ccc2c1)N1C2CCCC1CC(C(=O)O)C2 (stereo partly drawn) [Example 228, 9-(1-(5-cyano-6-(((1s,4s)-4-(trifluoromethyl)cyclohexyl)oxy)naphthalen-2-yl)ethyl)-9-azabicyclo[3.3.1]nonane-3-carboxylic acid] | ≤ 100
19 | N#Cc1c(O[C@H]2CC[C@@H](C(F)(F)F)CC2)ccc2cc(CN3C4CCCC3CC(C(=O)O)C4)ccc12 (stereo partly drawn) [Example 229, 9-((5-cyano-6-((cis-4-(trifluoromethyl)cyclohexyl)oxy)naphthalen-2-yl)methyl)-9-azabicyclo[3.3.1]nonane-3-carboxylic acid] | ≤ 100
20 | O=C(O)C1CC2CCCC(C1)N2Cc1ccc2c(C(F)(F)F)c(N[C@H]3CC[C@@H](C(F)(F)F)CC3)ccc2c1 (stereo partly drawn) [Example 230, 9-((5-(trifluoromethyl)-6-((cis-4-(trifluoromethyl)cyclohexyl)amino)naphthalen-2-yl)methyl)-9-azabicyclo[3.3.1]nonane-3-carboxylic acid] | ≤ 100
21 | COC(=O)C1CC2CCC(C1)N2C(=O)c1ccc2c(C(F)(F)F)c(N[C@H]3CC[C@@H](C(F)(F)F)CC3)ccc2c1 (stereo partly drawn) [Example 231, methyl 8-(5-(trifluoromethyl)-6-((cis-4-(trifluoromethyl)cyclohexyl)amino)-2-naphthoyl)-8-azabicyclo[3.2.1]octane-3-carboxylate] | ≤ 250
22 | CC(c1ccc2c(Cl)c(O[C@H]3CC[C@@H](C(F)(F)F)CC3)ccc2c1)N1C2CCC1CC(C(=O)O)C2 (stereo partly drawn) [Example 234, 8-(1-(5-chloro-6-((cis-4-(trifluoromethyl)cyclohexyl)oxy)naphthalen-2-yl)ethyl)-8-azabicyclo[3.2.1]octane-3-carboxylic acid] | ≤ 100
23 | CC(c1ccc2c(Cl)c(O[C@H]3CC[C@@H](C(F)(F)F)CC3)ccc2c1)N1C2CCCC1CC(C(=O)O)C2 (stereo partly drawn) [Example 235, 9-(1-(5-chloro-6-((cis-4-(trifluoromethyl)cyclohexyl)oxy)naphthalen-2-yl)ethyl)-9-azabicyclo[3.3.1]nonane-3-carboxylic acid] | ≤ 100
24 | CCC(c1ccc2c(Cl)c(O[C@H]3CC[C@@H](CC)CC3)ccc2c1)N1C2CCC1CC(C(=O)O)C2 (stereo partly drawn) [Example 236, 8-(1-(5-chloro-6-((cis-4-ethylcyclohexyl)oxy)naphthalen-2-yl)propyl)-8-azabicyclo[3.2.1]octane-3-carboxylic acid] | ≤ 100
25 | CCC(c1ccc2c(Cl)c(O[C@H]3CC[C@@H](CC)CC3)ccc2c1)N1C2CCCC1CC(C(=O)O)C2 (stereo partly drawn) [Example 237, 9-(1-(5-chloro-6-((cis-4-ethylcyclohexyl)oxy)naphthalen-2-yl)propyl)-9-azabicyclo[3.3.1]nonane-3-carboxylic acid] | ≤ 250
26 | COC(=O)C1CC2CCCC(C1)N2C(=O)c1ccc2c(C(F)(F)F)c(N[C@H]3CC[C@@H](C(F)(F)F)CC3)ccc2c1 (stereo partly drawn) [Example 244, methyl 9-(5-(trifluoromethyl)-6-((cis-4-(trifluoromethyl)cyclohexyl)amino)-2-naphthoyl)-9-azabicyclo[3.3.1]nonane-3-carboxylate] | ≤ 100
27 | O=C(O)C1CC2CCCC(C1)N2C(=O)c1ccc2c(C(F)(F)F)c(N[C@H]3CC[C@@H](C(F)(F)F)CC3)ccc2c1 (stereo partly drawn) [Example 245, 9-(5-(trifluoromethyl)-6-((cis-4-(trifluoromethyl)cyclohexyl)amino)-2-naphthoyl)-9-azabicyclo[3.3.1]nonane-3-carboxylic acid] | ≤ 100
28 | CC(C)(C)[C@H]1CC[C@H](Nc2ncc3cc(C(=O)N4C5CCC4CC(C(=O)O)C5)ccc3n2)CC1 (stereo partly drawn) [Example 262, 8-(2-((trans-4-(tert-butyl)cyclohexyl)amino)quinazoline-6-carbonyl)-8-azabicyclo[3.2.1]octane-3-carboxylic acid] | ≤ 100
29 | C[C@H]1CC[C@H](Nc2cc3ccc(C(=O)N4C5CCCC4CC(C(=O)O)C5)cc3cn2)CC1 (stereo partly drawn) [Example 263, 9-(3-((trans-4-methylcyclohexyl)amino)isoquinoline-7-carbonyl)-9-azabicyclo[3.3.1]nonane-3-carboxylic acid] | ≤ 500
30 | C[C@H]1CC[C@H](Nc2cc3ccc(C(=O)N4C5CCC4CC(C(=O)O)C5)cc3cn2)CC1 (stereo partly drawn) [Example 264, 8-(3-((trans-4-methylcyclohexyl)amino)isoquinoline-7-carbonyl)-8-azabicyclo[3.2.1]octane-3-carboxylic acid] | ≤ 500
